Measurements as given in PubChem BioAssay (NCI).
“And” between values parts separate entries of the source, which are not always exact repeats. Equal entries are not always repeated.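 Where inhibition never reached the appropriate level, the endpoint shown equals the highest concentration tested. Otherwise, values were interpolated linearly from a five-concentration, 48-hour dose response in 96-well plates. The concentration for 50% growth inhibition is given as GI50. TGI denotes the concentration required for complete inhibition of growth.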

Assays:
Test in all cases: inhibition of tumour cell growth, NCI panel, 48 h
[1] = test system: CCRF-CEM leukemia
[2] = test system: 786-0 renal
[3] = test system: BT-549 breast
[4] = test system: MDA-MB-231 breast
[5] = test system: HCT-116 colon
[6] = test system: SF-539 CNS
[7] = test system: A498 renal
[8] = test system: COLO 205 colon

| Structure (SMILES) | GI50 [1] | TGI [1] | GI50 [2] | TGI [2] | GI50 [3] | TGI [3] | GI50 [4] | TGI [4] | GI50 [5] | TGI [5] | GI50 [6] | TGI [6] | GI50 [7] | TGI [7] | GI50 [8] | TGI [8] |
| --- | --- | --- | --- | --- | --- | --- | --- | --- | --- | --- | --- | --- | --- | --- | --- | --- |
| COc1ccc(/C(=N\O)c2cc(OC)c(OC)c(OC)c2)c(OC)c1N | 3.54 µM | > 100 µM | 6.77 µM | > 100 µM | 3.86 µM | > 100 µM | 4.6 µM | > 100 µM | 2.82 µM | > 100 µM | 2.89 µM | > 100 µM | 3.75 µM | > 100 µM | 2.23 µM | 6.5 µM |
| Cn1c(=O)c2[nH]c(C3CC(=O)CC(c4nc5c([nH]4)c(=O)n(C)c(=O)n5C)N3)nc2n(C)c1=O (stereo unspecified) |  | > 100 µM |  | > 100 µM |  | > 100 µM |  | > 100 µM |  | > 100 µM |  | > 100 µM |  | > 100 µM |  | > 100 µM |
| CC(C)(C)c1cn2cccc(C(=O)N3CCN(CC(=O)Nc4ccc(Cl)cc4C(=O)c4ccccc4Cl)CC3)c2n1 | 3.39 µM | 13.7 µM | 24.4 µM | 85.2 µM | 3.8 µM | 19.7 µM | 13.1 µM | 34.5 µM | 10.3 µM | 25.7 µM | 10 µM | 22.3 µM | 3.48 µM | 9.38 µM | 6.49 µM | 43.6 µM |
| NC(N)=N/N=C(/c1ccccc1)c1ccc(Cl)cc1 | 3.89 µM | > 100 µM | 16 µM | > 100 µM | 50.5 µM | > 100 µM | 16.5 µM | 56.6 µM | 4.71 µM | 63.6 µM | 18.8 µM | 53.5 µM | 4.71 µM | 28.7 µM | 14.4 µM | > 100 µM |
| c1ccc2c(-c3nc4ccccc4[nH]3)cccc2c1 | 2.54 µM | 7.81 µM | 5.5 µM | > 100 µM | 3.3 µM | 80 µM | 9.65 µM | > 100 µM | 3.47 µM | 96.8 µM | 3.77 µM | 23.7 µM | 1.11 µM | 6.52 µM | 3.48 µM | 11.8 µM |
| COc1cc(Nc2ncc3c(C)nc(-c4cccc(Oc5ccccc5)c4)n3n2)cc(OC)c1OC | 3.9 µM | > 25 µM | 6.2 µM | > 25 µM | 6.86 µM | > 25 µM | 4.99 µM | > 24.2 µM | 3.03 µM | > 25 µM | 7.07 µM | > 25 µM | 2.03 µM | > 22.9 µM | 7.68 µM | > 25 µM |
| CNc1cccnc1/C=N/NC(N)=S |  | > 10 µM |  | > 10 µM |  | > 10 µM |  | > 10 µM |  | > 8.26 µM |  | 1.54 µM |  | > 10 µM |  | > 10 µM |
| CS(=O)(=O)Nc1cccc(-c2ccc3c(NC(=O)C4CC4)n[nH]c3c2)c1 | 1.33 µM | > 25 µM | 12.2 µM | > 25 µM | 5.86 µM | > 25 µM | 6.35 µM | > 25 µM | 1.51 µM | > 25 µM | 1.5 µM | > 25 µM | 4.32 µM | > 25 µM | 1.81 µM | > 12.9 µM |
| O=C(Nc1cccc([N+](=O)[O-])c1)c1ccc2ccccc2c1O | 2.35 µM | > 35.1 µM | 4.46 µM | > 100 µM | 1.75 µM | 5.53 µM | 22.2 µM | > 81.9 µM | 5.27 µM | > 100 µM | 4.63 µM | > 64.8 µM | 3.27 µM | > 66.7 µM | 15.4 µM | > 57.5 µM |
| CCCC(=O)Nc1cc([N+](=O)[O-])c([N+](=O)[O-])cc1OC |  | 51.4 µM |  | > 100 µM |  | 31 µM |  | 38.9 µM |  | 32.3 µM |  | 37.8 µM |  | 32.5 µM |  | 30.9 µM |
| CCCCCCCCCCCCCCCCOC(=O)c1c(C)[nH]c(/C=C2\N=C(c3ccc[nH]3)C=C2OC)c1C | 32.9 µM | > 100 µM | 1.07 µM | 14.4 µM | 2.23 µM | 20.4 µM | 0.789 µM | 10.1 µM | 0.043 µM | 7.33 µM | 2.3 µM | 13.6 µM | 1.51 µM | 5.47 µM | 3.81 µM | > 100 µM |
| Cc1cc(O)ccc1O | 3.4 µM | > 100 µM | 21.2 µM | 75.8 µM | 16.3 µM | > 100 µM | 11.4 µM | 23.6 µM | 16.9 µM | 32.9 µM | 15.3 µM | 29.6 µM | 79.9 µM | > 100 µM | 23.7 µM | 47.6 µM |
| C/C1=C\CC[C@@]2(C)O[C@@H]2C[C@@H]2[C@H](C/C(C)=C/CC1)OC(=O)C21CCN=N1 (stereo partly specified) | 44.9 µM | 75 µM and > 100 µM | > 100 µM | > 100 µM | > 100 µM | > 100 µM | > 100 µM | > 100 µM | > 100 µM | > 100 µM | > 100 µM | > 100 µM |  | > 100 µM | > 100 µM | > 100 µM |
| Oc1ccc2ccccc2c1C(c1ccc(Cl)cc1)c1c(O)ccc2ccccc12 |  | 7.46 µM |  | 12.4 µM |  | 14.1 µM |  | 9.24 µM |  | 9.36 µM |  | 31.4 µM |  | 9.36 µM |  | 4.49 µM |
| COc1ccc(Cn2cc3c(c2-c2ccc(O)cc2)CCc2cnoc2-3)cc1 | 0.304 µM | 4.2 µM | 0.695 µM | 19.1 µM | 10 µM | 26.7 µM | 0.699 µM | 13.3 µM | 0.422 µM | 14.7 µM | 0.273 µM | 3.33 µM | 0.203 µM | 0.766 µM | 0.577 µM | 2.01 µM |
| C=C(C)[C@@H]1CC[C@]2(C(=O)O)CC[C@]3(C)[C@H](CC[C@@H]4[C@@]5(C)C[C@@H](CC#Cc6ccc(Br)cc6)C(=O)C(C)(C)[C@@H]5CC[C@]43C)[C@@H]12 | 3.57 µM | > 100 µM | 5.27 µM | 22.2 µM | 21 µM | 55 µM | 3.67 µM | 14.8 µM | 4.34 µM | 83.3 µM | 22.5 µM | > 100 µM | 2.42 µM | 7.29 µM | 18.2 µM | > 100 µM |
| CC(C)=CC(O)C/C(C)=C/CC/C(C)=C/CCC1(C)C(CCCO)/C(=C(/C)C=O)CCC1(C)O (stereo unspecified) |  | > 100 µM |  | > 100 µM |  | > 100 µM |  | 74.1 µM |  | > 100 µM |  | 52 µM |  | > 100 µM |  | > 100 µM |
